Reference: PMC7940615 (Scientific Reports, 2021)

Key:
SARS-CoV-2 [1] = test: Viral RNA by qRT-PCR in culture medium of human lung A549 cells; assay type: cell-based
[2] = blood of patients in both clinical studies; cited from earlier work
SARS-CoV-2 [3] = test: Antiviral assay in Vero E6 cells, immunofluorescence of nucleocapsid protein; assay type: cell-based; conditions: 72 h post infection; for IC50: immunofluorescence, MOI 0.1, read-out: IC50, inhibition of SARS-CoV-2 replication
SARS-CoV-2 [4] = test: Antiviral assay in human lung A549 cells (ACE2, TMPRSS2), immunofluorescence of nucleocapsid protein; assay type: cell-based; conditions: human lung A549 cells expressing ACE2 and TMPRSS2
[5] = tested on: hospitalized COVID-19 patients; conditions: 1620 patients; total median dose of 136 mg, oral or IV once daily, 6 days; cited from earlier work
SARS-CoV-2 [6] = conditions: Vero E6 cells; famotidine 0.32–200 µM; remdesivir 0.1–62.5 µM
SARS-CoV-2 [7] = test: Viral RNA by qRT-PCR in culture medium of Vero E6 cells; assay type: cell-based
[8] = tested on: non-hospitalized patients; conditions: 10 non-hospitalized patients; oral 240 mg per day for a median of 11 days; cited from earlier work
in vitro = conditions: human

SMILES | effect on viral RNA copies (qRT-PCR, E gene) (SARS-CoV-2 [1]) | peak plasma concentrations [2] | inhibition of SARS-CoV-2 replication (in words) (SARS-CoV-2 [3]; concentrations of up to 200 μM) | inhibition of SARS-CoV-2 replication (in words) (SARS-CoV-2 [4]; 0.32–200 µM, 72 h) | risk of death or intubation [5] | antiviral effect on virus yield (plaque formation) (SARS-CoV-2 [6]) | effect on viral RNA copies (qRT-PCR, E gene) (SARS-CoV-2 [7]) | patient-reported symptoms such as shortness of breath and cough [8] | IC50 (SARS-CoV-2 [3]; Severe acute respiratory syndrome coronavirus 2, Vero C1008, 72 h) | IC50 (SARS-CoV-2 [3]) | IC50 (SARS-CoV-2 [4]; Severe acute respiratory syndrome coronavirus 2, immunofluorescence, 72 h post infection, MOI 0.1, read-out: IC50, inhibition of SARS-CoV-2 replication) | CC50 (in vitro) | cytotoxicity (in words) (human lung A549 cells) | cytotoxicity (in words) (Vero E6 cells)
NC(N)=Nc1nc(CSCCC(N)=NS(N)(=O)=O)cs1 [Famotidine] | no effect | 0.5 to 2 µM | did not produce any measurable inhibition | no measurable effect | reduced risk of death or intubation | no effect on limiting virus plaque formation | no effect | patient-reported improvements in symptoms | – | – | – | – | – | –
CCC(CC)COC(=O)[C@H](C)N[P@](=O)(OC[C@H]1O[C@@](C#N)(c2ccc3c(N)ncnn23)[C@H](O)[C@@H]1O)Oc1ccccc1 [Remdesivir, remdesivir] | dose-dependent | – | – | – | – | dose-dependent antiviral effect | dose-dependent | – | 3.3 µM | 3.37 µM | 0.43 µM | 14.6 µM | dose-dependent cytotoxicity at higher concentrations | dose-dependent cytotoxicity at higher concentrations
